Measurements: patent US20230365590A1, “BIPHENYL COMPOUND AS IMMUNOMODULATOR, PREPARATION METHOD THEREFOR AND APPLICATION THEREOF” (SHENZHEN CHIPSCREEN BIOSCIENCES CO., LTD., priority 2020, published 2023)

Assays:
[1] = biological target: PD-1/PD-L1 binding (recombinant human PD-L1-Fc fusion protein and His-PD-1 protein) (Homo sapiens (Human), UniProt Q9NZQ7); assay: In vitro inhibitory activity against PD-1/PD-L1 binding (HTRF); conditions: read-out: IC50 for inhibiting PD-1/PD-L1 binding in vitro
Excerpt: Homogeneous time resolved fluorescence method (HTRF): This method uses the recombinant human PD-L1 protein fused with hFc tag and the recombinant human PD-1 protein fused with His tag, which are interacting ligands and receptors. When the anti-hFc antibody containing chelated Eu tag and the anti-His antibody containing XL665 fluorescein tag are used to bind with the above two corresponding tags respectively and are excited by 320 nm laser, energy can be transferred from Eu element to XL665 fluorescein due to ligand receptor binding, and the XL665 fluorescein is excited to emit light with a wavelength of 665 nm. When an inhibitor for inhibiting interaction of PD-L1 and PD-1 is added, the binding of the ligand and the receptor is destroyed, causing a long distance between Eu and XL665. As a result, the energy cannot be transferred, and the XL665 fluorescein will not be excited.
(§1) Experimental Materials and Devices The recombinant human PD-1 protein with His tag (His-PD-1 protein, Cat #: 10377-H08H-50) and the recombinant human PD-L1-Fc fusion protein (PD-L1-Fc fusion protein, Cat #: 10084-H02H-100) were purchased from Sino Biological Inc., anti-hFc-Eu^3+ antibody and anti-His-XL665 antibody were purchased from Cisbio, and other related reagents such as a diluent buffer (diluent buffer 5 (Cat #: 62DL5DDC) and a detection buffer (PPI-European detection buffer, Cat #: 61DB9RDF) were purchased from Cisbio. Fluorescence detector Tecan (Spark 10M) was purchased from Tecan Company in Switzerland.
The experiment process was carried out according to the flow required in the operating manual of the test reagent. The process was as follows: • (1) Experiment preparation: A test compound was diluted to different concentration gradients with the dilution buffer (the highest final concentration in a 20 μL final reaction system was 10 μM). The His-PD-1 protein was diluted to 800 nM (the final concentration in the 20 final reaction system was 100 nM). The PD-L1-Fc fusion protein was diluted to 16 nM (the final concentration was 2 nM). […] All tests were conducted by use of multiple holes. • (4) The fluorescence detector Tecan (Spark 10M) was used to detect the fluorescence signal of each hole. The excitation wavelength was 320 nm, and the emission wavelengths for detection were 620 nm and 665 nm, respectively. The strength of PD-1/PD-L1 binding refers to a fluorescence signal ratio Em665/Em620. • (5) Calculation formula of binding inhibition rate of test compound: Inhibition rate (%)=[1−(fluorescence signal ratio of detected hole−fluorescence signal ratio of 100% inhibition negative control)]/(fluorescence signal ratio of 0% inhibition positive control−fluorescence signal ratio of 100% inhibition negative control)×100%. The 50% inhibition concentration (IC50) was calculated after the PD-1/PD-L1 binding inhibition rates of the test compound with different concentration gradients were calculated respectively.

[2] = biological target: CD80/PD-L1 binding (recombinant human His-CD80 protein and PD-L1-Fc fusion protein) (Homo sapiens (Human), UniProt Q9NZQ7); assay: In vitro inhibitory activity against CD80/PD-L1 binding (HTRF); conditions: read-out: IC50 for inhibiting CD80/PD-L1 binding in vitro
Excerpt: In addition to PD-1, PD-L1 can also play an immune inhibition role by binding to CD80. Similarly, in vitro CD80/PD-L1 binding or binding inhibition test can also be conducted by homogeneous time-resolved fluorescence (HTRF). When the anti-hFc-Eu^3+ antibody and the anti-His-XL665 antibody are used to bind to the hFC tag fused to PD-L1 and the His tag fused to CD80 respectively, and after excitation with 320 nm laser, energy can be transferred from Eu element to XL665 fluorescein due to the binding of PD-L1 and CD80 to excite the XL665 fluorescein to emit light. When an inhibitor for inhibiting interaction of PD-L1 and CD80 is added, the binding of PD-L1 and CD80 is destroyed, causing a long distance between Eu and XL665. As a result, the energy cannot be transferred, and the XL665 fluorescein will not be excited.
as §1, with “The” for “Experimental Materials and Devices The”, “CD80” for “PD-1”, “(His-CD80” for “(His-PD-1”, “10698-H08H-100)” for “10377-H08H-50)”, “(Diluent” for “(diluent”
The experiment process was carried out according to the flow required in the operating manual of the test reagent (Invitrogen). The process was as follows: • (1) Experiment preparation: A test compound was diluted to different concentration gradients with the dilution buffer (the highest final concentration in a 20 μL final reaction system was 10 μM). The His-CD80 protein was diluted to 800 nM (the final concentration in the 20 final reaction system was 100 nM). The PD-L1-Fc fusion protein was diluted to 16 nM (the final concentration was 2 nM). The anti-His-XL665 antibody and the anti-hFc-Eu^3+antibody were diluted 20 times and 100 times respectively with the detection buffer according to reagent requirements. • (2) First, 5 μL of the test compound, 2.5 μL of the His-CD80 fusion protein and 2.5 μL of the […] fusion protein solution were well mixed and incubated at room temperature for 15 min; then, 5 μL of the anti-His-XL665 antibody and 5 μL of the anti-hFc-Eu^3+antibody were added to the system and further incubated for 3 h before test. • (3) During the test reaction, control groups were set, including a 0% inhibitory positive control without adding the test compound and a 100% inhibitory negative control without adding the CD80 protein. All tests were conducted by use of multiple holes. • (4) The fluorescence detector Tecan (Spark 10M) was used to detect the fluorescence signal of each hole. The excitation wavelength was 320 nm, and the emission wavelengths for detection were 620 nm and 665 nm, respectively. The strength of CD80/PD-L1 binding refers to a fluorescence signal ratio Em665/Em620. • (5) Calculation formula of binding inhibition rate of test compound: Inhibition rate (%)=[1−(fluorescence signal ratio of detected hole−fluorescence signal ratio of 100% inhibition negative control)]/(fluorescence signal ratio of 0% inhibition positive control — fluorescence signal ratio of 100% inhibition negative control)×100%. The 50% inhibition concentration (IC50) was calculated after the CD80/PD-L1 binding inhibition rates of the test compound with different concentration gradients were calculated respectively.

Sequence of CD80/PD-L1 binding (recombinant human His-CD80 protein and PD-L1-Fc fusion protein) (Q9NZQ7 19-239): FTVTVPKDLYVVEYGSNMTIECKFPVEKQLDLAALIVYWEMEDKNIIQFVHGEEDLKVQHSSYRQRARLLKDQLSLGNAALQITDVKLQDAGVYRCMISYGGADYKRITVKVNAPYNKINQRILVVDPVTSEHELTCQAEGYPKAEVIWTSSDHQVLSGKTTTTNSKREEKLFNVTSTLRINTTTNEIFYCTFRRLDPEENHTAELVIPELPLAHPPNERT
Sequence of PD-1/PD-L1 binding (recombinant human PD-L1-Fc fusion protein and His-PD-1 protein) (Q9NZQ7 19-239): as above

Row | Structure (SMILES) | IC50 [1] [nM] | IC50 [2] [nM]
1 | COCC12CCC(CCCN3CCc4c(nc(C(=O)Nc5cccc(-c6cccc(NC(=O)c7nc8c(n7C)CCN(CCC79CCC(C(=O)O)(CC7)C9)C8)c6C)c5Cl)n4C)C3)(CC1)C2 [Compound I-1, 4-(2-(2-((2′-chloro-3′-(5-(3-(4-(methoxymethyl)bicyclo[2. 2.1]heptan-1-yl)propyl)-1-methyl-4,5,6,7-tetrahydro-1H-imidazo[4,5-c]pyridine-2-carboxamido) -2-methyl-[1,1′-biphenyl]-3-yl)carbamoyl)-1-methyl-1,4,6,7-tetrahydro-5H-imidazo[4,5-c]pyridin-5-yl)ethyl)bicyclo[2.2.1]heptane-1-carboxylic acid] | 1.47 | 0.84
2 | COCC12CCC(CCCN3CCc4c(nc(C(=O)Nc5cccc(-c6cccc(NC(=O)c7nc8c(n7C)CCN(CCC79CCC(C(=O)O)(CC7)C9)C8)c6Cl)c5C)n4C)C3)(CC1)C2 [Compound I-2, 4-(2-(2-((2-chloro-3′-(5-(3-(4-(methoxymethyl)bicyclo[2.2.1]heptan-1-yl)propyl)-1-methyl-4,5,6,7-tetrahydro-1H-imidazo[4,5-c]pyridine-2-carboxamido)-2′-methyl-[1,1′-biphenyl]-3-yl)carbamoyl)-1-methyl-1,4,6,7-tetrahydro-5H-imidazo[4,5-c]pyridin-5-yl)ethyl)bicyclo[2.2.1]heptane-1-carboxylic acid] | 1.32 | 0.79
3 | CCOCC12CCC(CCN3CCc4c(nc(C(=O)Nc5cccc(-c6cccc(NC(=O)c7nc8c(n7C)CCN(CCC79CCC(C(=O)O)(CC7)C9)C8)c6C)c5Cl)n4C)C3)(CC1)C2 [Compound I-3, 4-(2-(2-((2′-chloro-3′-(5-(2-(4-(ethoxymethyl)bicyclo[2.2.1]heptan-1-yl)ethyl)-1-methyl-4,5 ,6,7-tetrahydro-1H-imidazo[4,5-c]pyridine-2-carboxamido)-2-methyl-[1,1′-biphenyl]-3-yl)carbamoyl)-1-methyl-1,4,6,7-tetrahydro-5H-imidazo[4,5-c]pyridin-5-yl)ethyl)bicyclo[2.2.1]heptane-1-carboxylic acid] | 1.19 | 0.96
4 | COCC12CCC(CCN3CCc4c(nc(C(=O)Nc5cccc(-c6cccc(NC(=O)c7nc8c(n7C)CCN(CCC79CCC(C(=O)O)(CC7)C9)C8)c6C)c5Cl)n4C)C3)(CC1)C2 [Compound I-4, 4-(2-(2-((2′-chloro-3′-(5-(2-(4-(methoxymethyl)bicyclo[2. 2.1]heptan-1-yl)ethyl)-1-methyl-4,5,6,7-tetrahydro-1H-imidazo[4,5-c]pyridine-2-carboxamido)-2-methyl-[1 ,1′-biphenyl]-3-yl)carbamoyl)-1-methyl-1,4,6,7-tetrahydro-5H-imidazo[4,5-c]pyridin-5-yl)ethyl)bicyclo[2.2.1]heptane-1-carboxylic acid] | 1.89 | 2.78
5 | COCC12CCC(CCN3CCc4c(nc(C(=O)Nc5cccc(-c6cccc(NC(=O)c7nc8c(n7C)CCN(CCC79CCC(C(=O)O)(CC7)C9)C8)c6Cl)c5C)n4C)C3)(CC1)C2 [Compound I-5, 4-(2-(2-((2-chloro-3′-(5-(2-(4-(methoxymethyl)bicyclo[2.2.1]heptan-1-yl)ethyl)-1-methyl-4,5,6,7-tetrahydro-1H-imidazo[4,5-c]pyridine-2-carboxamido)-2′-methyl-[1,1′-biphenyl]-3-yl)carbamoyl)-1-methyl-1,4,6,7-tetrahydro-5H-imidazo [4,5-c]pyridin-5-yl)ethyl)bicyclo[2.2.1]heptane-1-carboxylic acid] | 2.35 | 2.16
6 | COCC12CCC(CCN3CCc4c(nc(C(=O)Nc5cccc(-c6cccc(NC(=O)c7nc8c(n7C)CCN(CCC79CCC(C(=O)O)(CC7)C9)C8)c6Cl)c5Cl)n4C)C3)(CC1)C2 [Compound I-6, 4-(2-(2-((2,2′-dichloro-3′-(5-(2-(4-(methoxymethyl)bicyclo[2.2.1]heptan-1-yl)ethyl)-1-methyl-4,5,6,7-tetrahydro-1H-imidazo[4,5-c]pyridine-2-carboxamido)-[1, 1′-biphenyl]-3-yl)carbamoyl)-1-methyl-1,4,6,7-tetrahydro-5H-imidazo[4,5-c]pyridin-5-yl)ethyl)bicyclo[2.2.1]heptane-1-carboxylic acid] |  | 0.86
7 | Cn1c(C(=O)Nc2cccc(-c3cccc(NC(=O)c4nc5c(n4C)CCN(CCC46CCC(C(=O)O)(CC4)C6)C5)c3Cl)c2Cl)nc2c1CCN(CCC13CCC(COC(F)F)(CC1)C3)C2 [Compound I-7, 4-(2-(2-((2,2′-dichloro-3′-(5-(2-(4-((difluoromethoxy)methyl)bicyclo[2.2.1]heptan-1-yl)ethyl)-1-methyl-4,5,6,7-tetrahydro-1H-imidazo[4,5-c]pyridine-2-carboxamido)-[1,1′-biphenyl]-3-yl)carbamoyl)-1-methyl-1,4,6,7-tetrahydro-5H-imidazo[4,5-c]pyridin-5-yl)ethyl)bicyclo[2.2.1]heptane-1-carboxylic acid] | 0.29 | 0.33
8 | COCC12CCC(CN3CCc4c(nc(C(=O)Nc5cccc(-c6cccc(NC(=O)c7nc8c(n7C)CCN(CCC79CCC(C(=O)O)(CC7)C9)C8)c6Cl)c5Cl)n4C)C3)(CC1)C2 [Compound I-8, 4-(2-(2-((2,2′-dichloro-3′-(5-((4-(methoxymethyl)bicyclo[2.2.1]heptan-1-yl)methyl)-1-methyl-4,5,6,7-tetrahydro-1H-imidazo[4,5-c]pyridine-2-carboxamido)-[1, 1′-biphenyl]-3-yl)carbamoyl)-1-methyl-1,4,6,7-tetrahydro-5H-imidazo[4,5-c]pyridin-5-yl)ethyl)bicyclo[2.2.1]heptane-1-carboxylic acid] | 3.7 | 3.4
